Experimental data as given in patent US6500936B2, “Pluraflavins and derivatives thereof, process for their preparation and use thereof” (priority 2000, dated 2002).
Several values for one entry are separate records, joined by “and”; a condition that tells them apart may be missing. Equal entries are not always repeated. Where two headings read alike, the source gives them in different places.

What was measured:
[1] = test system: rat hepatoma cells ATCC CRL-1548; assay: Cytostatic activity on rat hepatoma cells (Cell Titer 96 Aqueous); type: cell-based; settings: read-out: IC50 (cytostatic effect)
Procedure: (a) To determine the cytostatic activity, rat hepatoma cells were used which were obtained from the strain collection American Type Culture Collection under the number ATCC CRL-1548, Jo No.223 and 228 The strain was kept in the “MEM (EAGLE) with Glutamax” medium [GIBCO BRL No.4109-028] with 10% fetal calf serum [GIBCO BRL No. 10270-106] and 10 μl of penicillin-streptomycin [GIBCO BRL No. 15140-114]/ml. 96-well microtiterplates [Greiner, No. 15140-114] were used. Each well was initially charged with 140 μl of culturing nutrient solution and in each case inoculated with 215,000 cells. The plates were then incubated at 37° C. and 5% CO2 for 20-24 hours. A dilution series of pluraflavins with concentrations of 100, 50, 25, 12.5, 6.25, 3.125, 1.5625, 0.7813, 0.3906, 0.195, 0.094, 0.047 and 0 μM, which had been prepared beforehand, was then pipetted in the corresponding order. After a further incubation time of 22 hours at 37° C. in an atmosphere of 5% CO2, the liquid medium was then aspirated. The cells that remained were stained with 100 μl of RPMI 1640 [GIBCO BRL No. 32404-014]/well and 20 μl of Cell Titer 96 Aqueous [PROMEGA No. G5430]/well. Light absorption at 590 nm was measured directly after addition and after 2 hours of incubation, as above. The cytostatic effect was calculated from the change in light absorption.

Breast tumor cell line = assay: MTT antiproliferation assay, breast tumor cells; type: cell-based
Source text: (§1) MTT, a water soluble tetrazolium salt, is converted to an insoluble purple formazan when dissolved by cleavage of the tetrazolium ring by dehydrogenase enzymes in active mitochondria. […] This method was used to quantitate proliferation in order to determine activity of potential chemotherapeutic compounds.
(§2) All cells were maintained in RPMI 1640 (Life Technologies, Gaithersburg, Mdi) containing 10% heat-inactivated Fetal Bovine Serum, penicillin /streptomycin and supplemented with L-glutamine.
(§3) Cells were plated in 96-well tissue culture plates at the following densities:
(§4) Cells were allowed to adhere overnight at 37° C., 5% CO2.
(§5) The cells were washed with fresh media and the compounds added to the cells in a final volume of 100 μl. The cells plus compound were allowed to incubate at 37° C., 5% CO2 for approximately 72 hours.
(§6) At the desired time point, 25 μl of MTT (10 mg/ml in HBSS) were added to each well. Plates were incubated at 37° C. for 2-4 hours. MTT and media were removed and 200 μl DMSO were added per well. Readings were taken at 570 nm.

Prostate tumor cell line = assay: MTT antiproliferation assay, prostate tumor cells; type: cell-based
Source text: as §1, §2, §3, §4, §5, §6

Colon tumor cell line = assay: MTT antiproliferation assay, colon tumor cells; type: cell-based
Source text: as §1, §2, §3, §4, §5, §6

Lung tumor cell line = assay: MTT antiproliferation assay, lung tumor cells; type: cell-based
Source text: as §1, §2, §3, §4, §5, §6

leukemia cells = assay: Soft agar assay against leukemia cells; type: cell-based
[2] = Chemical stability by medium / pH
[3] = Solubility (appearance description)

Row | IC50 (Breast tumor cell line; Breast cells, MTT, approximately 72 hours, read-out: IC50) [nM] | IC50 (Prostate tumor cell line; Prostate cells, MTT, approximately 72 hours, read-out: IC50) [nM] | IC50 (Colon tumor cell line; Colon cells, MTT, approximately 72 hours, read-out: IC50) [nM] | IC50 (Lung tumor cell line; Lung cells, MTT, approximately 72 hours, read-out: IC50) [nM] | IC50 (leukemia cells; soft agar assay, leukemia cells, read-out: IC50) | Structure (SMILES) | IC50 ([1]; Rattus norvegicus, 22 h) [nM] | IC50 (Breast tumor cell line; 72 h) [nM] | IC50 (Prostate tumor cell line; 72 h) [nM] | IC50 (Colon tumor cell line; 72 h) [nM] | IC50 (Lung tumor cell line; 72 h) [nM] | IC50 (leukemia cells) [nM] | stability in the alkaline range [2] | stability in neutral and mildly acidic medium [2] | stability in the strongly acidic range [2] | IC50 ([1]; rat hepatoma cells, 22 hours incubation) [nM] | solubility in polar organic solvents [3] | solubility in water [3]
1 | – | – | – | – | – | CC1OC(OC2C(C)OC(c3ccc4c(c3O)C(=O)c3c(cc(COC5CC(C)(N)C(O)C(C)O5)c5c(=O)cc(C6(C)OC6C)oc35)C4=O)CC2N(C)C)CC(O)C1O (stereo not drawn) [pluraflavin A] | < 50 | < 23 | 10 | 0.35 | 3 | 60 | unstable | stable | unstable | – | – | –
2 | – | – | – | – | – | CC1OC(OC2C(C)OC(c3ccc4c(c3O)C(=O)c3c(cc(COC5CC(C)(N)C(O)C(C)O5)c5c(=O)cc(C(C)(O)C(C)O)oc35)C4=O)CC2N(C)C)CC(O)C1O (stereo not drawn) [pluraflavin B] | – | – | – | – | – | – | unstable | stable | – | < 50 | soluble | only sparingly soluble
3 | 90 | 80 | 30 | 90 | 500 nM and 600 nM | CN1CC[C@H](c2c(O)cc(O)c3c(=O)cc(-c4ccccc4Cl)oc23)[C@H](O)C1 [flavopiridol, reference compound] | – | – | – | – | – | – | – | – | – | – | – | –
4 | – | – | – | – | – | CC1OC(OC2C(C)OC(c3ccc4c(c3O)C(=O)c3c(cc(C(=O)O)c5c(=O)cc(C(C)(O)C(C)O)oc35)C4=O)CC2N(C)C)CC(O)C1O (stereo not drawn) [pluraflavin E] | – | – | – | – | – | – | unstable | stable | unstable | – | soluble | only sparingly soluble
